Experimental data as given in PubChem BioAssay AID743142 (Broad Institute, 2013).
Inconclusive results are not listed. The source made the active and inactive calls.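 Rule for the calls: active = sample lowering the cell viability signal whose fitted half-effect dose is at or below its top tested dose; inconclusive = flat fit with 30 to 70 percent loss, or poor fit; inactive = the rest, including effects in the wrong direction.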

Tested on: HEK293T viability, ATP luminescence (CellTiter-Glo), 72 h
Test: HEK293T viability loss – cell-based, ATP luminescence, dry powder, Set6, cytotoxicity control, dose response (AID 743142)
Details: not given

| Structure (SMILES) | AC50 [µM] |
| --- | --- |
| O=C(CCNC(=O)c1ccc(Cl)cc1)NC1CCCc2ccccc21 (stereo unspecified) | 7.73 |

Tested on: not listed separately
Test: as above
Details: HEK293T viability, ATP luminescence (CellTiter-Glo), 72 h; at 12 µM (top of the series)

| Structure (SMILES) | activity change, negative = cytotoxicity |
| --- | --- |
| CC(NC(=O)CCNC(=O)c1ccc(Cl)cc1)c1ccc(F)cc1 (stereo unspecified) | 41.6% (inactive) |

Same assay, conditions: HEK293T viability, ATP luminescence (CellTiter-Glo), 72 h; at 26 µM (top of the series)

| Structure (SMILES) | activity change, negative = cytotoxicity |
| --- | --- |
| CC(NC(=O)CCNC(=O)c1ccc(Cl)cc1)c1ccc2c(c1)OCO2 (stereo unspecified) | 21.1% (inactive) |
| COc1cc(C(=O)NCCC(=O)NC2CCCc3ccccc32)cc(OC)c1OC (stereo unspecified) | -40.5% (inactive) |
| CC(C)(C)OC(=O)NCCC(=O)N[C@H]1CCCc2ccccc21 | -17.3% (inactive) |
| NCCC(=O)N[C@@H]1CCCc2ccccc21 | 27.3% (inactive) |
| O=C(CCNC(=O)c1ccccc1Cl)NC1CCCc2ccccc21 (stereo unspecified) | 10.9% (inactive) |
| O=C(CCNC(=O)c1ccccc1)N[C@@H]1CCCc2ccccc21 | -39.6% (inactive) |
| O=C(CNC(=O)c1ccc(Cl)cc1)N[C@@H]1CCCc2ccccc21 | -4.76% (inactive) |
| O=C(CNC(=O)c1ccc(C(F)(F)F)cc1)N[C@@H]1CCCc2ccccc21 | -8.54% (inactive) |
| O=C(CNC(=O)c1ccc(OC(F)(F)F)cc1)N[C@@H]1CCCc2ccccc21 | 1.28% (inactive) |
| CC(CC(=O)NC1CCCc2ccccc21)NC(=O)c1ccccc1 (stereo unspecified) | -38.5% (inactive) |
| O=C(CCCNC(=O)c1ccc(Cl)c(Cl)c1)N[C@@H]1CCCc2ccccc21 | 8.38% (inactive) |
| CC(C)(C)OC(=O)NCCC(=O)N[C@@H]1CCCc2ccccc21 | -2.95% (inactive) |
| O=C(CCCNC(=O)c1ccc(OC(F)(F)F)cc1)N[C@@H]1CCCc2ccccc21 | 48.5% (inactive) |
| CC(=O)NCCC(=O)N[C@@H]1CCCc2ccccc21 | 10.6% (inactive) |
| CC(c1ccccc1)N(C)C(=O)CCNC(=O)c1ccc(Cl)cc1 (stereo unspecified) | -5.44% (inactive) |
| O=C(CNC(=O)c1ccc(Cl)c(Cl)c1)N[C@@H]1CCCc2ccccc21 | -24.4% (inactive) |
| CN(C(=O)CCNC(=O)c1ccc(F)cc1F)C1CCCc2ccccc21 (stereo unspecified) | 7.5% (inactive) |
| COc1ccccc1C(=O)NCCC(=O)NC1CCCc2ccccc21 (stereo unspecified) | -2.09% (inactive) |
| CC(CC(=O)N(C)C1CCCc2ccccc21)NC(=O)c1ccccc1 (stereo unspecified) | -30% (inactive) |
| O=C(CCCNC(=O)c1ccc(Cl)cc1)N[C@@H]1CCCc2ccccc21 | 2.4% (inactive) |
| O=C(CCCNC(=O)c1ccc(C(F)(F)F)cc1)N[C@@H]1CCCc2ccccc21 | 49.1% (inactive) |
| Cc1cccc(C(=O)NCCC(=O)NC2CCCc3ccccc32)c1 (stereo unspecified) | -15.8% (inactive) |
| COc1ccccc1C(C)NC(=O)CCNC(=O)c1ccc(Cl)cc1 (stereo unspecified) | -9.14% (inactive) |
| C[C@@H](NC(=O)CCNC(=O)c1ccc(Cl)cc1)c1ccccc1 | 19.9% (inactive) |
| O=C(CCNC(=O)c1ccc(Cl)cc1)N[C@H]1CCCc2ccccc21 | -23.6% (inactive) |
| CC(NC(=O)C1CCCN(C(=O)c2ccc(Cl)cc2)C1)c1ccccc1 (stereo unspecified) | 64.4% (inactive) |
| O=C(NC1CCc2ccccc21)C1CCCN(C(=O)c2ccc(Cl)cc2)C1 (stereo unspecified) | -34.8% (inactive) |
| O=C(CCNC(=O)c1ccc(Cl)cc1)NC1CCCCC1 | 13% (inactive) |
| O=C(NC1CCOc2ccccc21)C1CCCN(C(=O)c2ccc(Cl)cc2)C1 (stereo unspecified) | -5.89% (inactive) |
